Data taken from patent publication US10154990B2, “Medicaments for the treatment or prevention of fibrotic diseases” (Boehringer Ingelheim International GmbH, priority 2004, dated 2018).
Counter-ions that a name gives are not always drawn.

| melting point [°C] | SMILES |
| --- | --- |
| 256 to 257 | NC(CCO)(CCO)c1ccc(N/C(=C2\C(=O)Nc3cc(C(=O)O)ccc32)c2ccccc2)cc1 (as salt: Na) [(aq), 3-Z-[1-(4-(di-(2-hydroxy-ethyl)-amino-methyl)-anilino)-1-phenyl-methylene]-6-carboxy-2-indolinone] |
| 205 to 208 | COC(=O)c1ccc2c(c1)NC(=O)/C2=C(\Nc1ccc(N(C)C(=O)N2CCN(C)CC2)cc1)c1ccccc1 [(ag), 3-Z-[1-(4-(N-((4-methyl-piperazin-1-yl)-carbonyl)-N-methyl-amino)-anilino)-1-phenyl-methylene]-6-methoxycarbonyl-2-indolinone] |
| 275 | CN1CCN(Cc2ccc(N/C(=C3\C(=O)Nc4cc(C(=O)O)ccc43)c3ccccc3)cc2)CC1 [(am), 3-Z-[1-(4-(4-methylpiperazin-1-yl-methyl)-anilino)-1-phenyl-methylene]-6-carboxy-2-indolinone] |
| 287 | CNCc1ccc(N/C(=C2\C(=O)Nc3cc(C(=O)O)ccc32)c2ccccc2)cc1 [(an), 3-Z-[1-(4-methylaminomethyl-anilino)-1-phenyl-methylene]-6-carboxy-2-indolinone] |
| 335 | O=C1Nc2cc(C(=O)O)ccc2/C1=C(/Nc1ccc(CN2CCOCC2)cc1)c1ccccc1 [(ao), 3-Z-[1-(4-(morpholin-4-yl-methyl)-anilino)-1-phenyl-methylene]-6-carboxy-2-indolinone] |
| 280 | CN(C)CCN(c1ccc(N/C(=C2\C(=O)Nc3cc(C(=O)O)ccc32)c2ccccc2)cc1)S(C)(=O)=O [(ap), 3-Z-[1-(4-(N-(2-dimethylamino-ethyl)-N-methylsulphonyl-amino)-anilino)-1-phenyl-methylene]-6-carboxy-2-indolinone] |
| 237 to 238 | CN(C(=O)CN1CCOCC1)c1ccc(N/C(=C2\C(=O)Nc3cc(C(=O)O)ccc32)c2ccccc2)cc1 [(as), 3-Z-[1-(4-(N-(morpholin-4-yl-methylcarbonyl)-N-methyl-amino)-anilino)-1-phenyl-methylene]-6-carboxy-2-indolinone] |
| 279 to 283 | CCNC(=O)c1ccc2c(c1)NC(=O)/C2=C(\Nc1ccc(N(C)C(=O)CN2CCN(C)CC2)cc1)c1ccccc1 [(bv), 3-Z-[1-(4-(N-((4-methyl-piperazin-1-yl)-methylcarbonyl)-N-methyl-amino)-anilino)-1-phenyl-methylene]-6-ethylcarbamoyl-2-indolinone] |
| 341 to 344 | CCNC(=O)c1ccc2c(c1)NC(=O)/C2=C(\Nc1ccc(CN(C)C)cc1)c1ccccc1 [(bz), 3-Z-[1-(4-dimethylaminomethyl-anilino)-1-phenyl-methylene]-6-ethylcarbamoyl-2-indolinone] |
| 288 to 292 | CCNC(=O)c1ccc2c(c1)NC(=O)/C2=C(\Nc1ccc(C(=O)N2CCN(C)CC2)cc1)c1ccccc1 [(cf), 3-Z-[1-(4-((4-methyl-piperazin-1-yl)-carbonyl)-anilino)-1-phenyl-methylene]-6-ethylcarbamoyl-2-indolinone] |
| 127 to 130 | CCNC(=O)c1ccc2c(c1)NC(=O)/C2=C(\Nc1ccc(C(=O)N2CCN(CC)CC2)cc1)c1ccccc1 [(ck), 3-Z-[1-(4-((4-ethyl-piperazin-1-yl)-carbonyl)-anilino)-1-phenyl-methylene]-6-ethylcarbamoyl-2-indolinone] |

The next lines start with the compound.

| SMILES | melting point [°C] |
| --- | --- |
| COC(=O)c1ccc2c(c1)NC(=O)/C2=C(\Nc1ccc(N(C)C(=O)CC2CCN(C)CC2)cc1)c1ccccc1 [(ad), 3-Z-[1-(4-(N-((1-methyl-piperidin-4-yl)-methylcarbonyl)-N-methyl-amino)-anilino)-1-phenyl-methylene]-6-methoxycarbonyl-2-indolinone] | 190 to 193 |
| COC(=O)c1ccc2c(c1)NC(=O)/C2=C(\Nc1ccc(NC(=O)CN2CCN(C)CC2)c(C)c1C)c1ccccc1 [(ae), 3-Z-[1-(2,3-dimethyl-4-(N-((4-methyl-piperazin-1-yl)-methylcarbonyl)-amino)-anilino)-1-phenyl-methylene]-6-methoxycarbonyl-2-indolinone] | 254 to 257 |
| COC(=O)c1ccc2c(c1)NC(=O)/C2=C(\Nc1ccc(N(C)C(=O)NCCCN(C)C)cc1)c1ccccc1 [(ai), 3-Z-[1-(4-(N-((3-dimethylamino-propyl)-aminocarbonyl)-N-methyl-amino)-anilino)-1-phenyl-methylene]-6-methoxycarbonyl-2-indolinone] | 166 to 170 |
| CN(C)CCN(C)CC(=O)N(C)c1ccc(N/C(=C2\C(=O)Nc3cc(C(=O)O)ccc32)c2ccccc2)cc1 [(at), 3-Z-[1-(4-(N—(N-(2-dimethylamino-ethyl)-N-methyl-aminomethylcarbonyl)-N-methyl-amino)-anilino)-1-phenyl-methylene]-6-carboxy-2-indolinone] | 238 to 240 |
| COC(=O)c1ccc2c(c1)NC(=O)/C2=C(\Nc1ccc(CN(C)C)cc1)c1cccc(CCC(=O)O)c1 [(aw), 3-Z-[1-(4-dimethylaminomethyl-anilino)-1-(3-(2-carboxy-ethyl)-phenyl)-methylene]-6-methoxycarbonyl-2-indolinone] | 163 to 167 |
| COC(=O)c1ccc2c(c1)NC(=O)/C2=C(\Nc1ccc(CCN(C)C)cc1)c1cccc(CCC(=O)O)c1 [(ax), 3-Z-[1-(4-(2-dimethylamino-ethyl)-anilino)-1-(3-(2-carboxy-ethyl)-phenyl)-methylene]-6-methoxycarbonyl-2-indolinone] | 248 to 255 |
| COC(=O)c1ccc2c(c1)NC(=O)/C2=C(\Nc1ccc(-c2nccn2C)cc1)c1cccc(CCC(=O)O)c1 [(ay), 3-Z-[1-(4-(1-methyl-imidazol-2-yl)-anilino)-1-(3-(2-carboxy-ethyl)-phenyl)-methylene]-6-methoxycarbonyl-2-indolinone] | 184 to 190 |
| COC(=O)c1ccc2c(c1)NC(=O)/C2=C(\Nc1ccc(CN(C)C)cc1)c1ccc(CCC(=O)O)cc1 [(az), 3-Z-[1-(4-dimethylaminomethyl-anilino)-1-(4-(2-carboxy-ethyl)-phenyl)-methylene]-6-methoxycarbonyl-2-indolinone] | 190 to 195 |
| CCNC(=O)c1ccc2c(c1)NC(=O)/C2=C(\Nc1ccc(OCCN(C)C)cc1)c1ccccc1 [(bu), 3-Z-[1-(4-(2-dimethylamino-ethoxy)-anilino)-1-phenyl-methylene]-6-ethylcarbamoyl-2-indolinone] | 308 to 311 |
| CCNC(=O)c1ccc2c(c1)NC(=O)/C2=C(\Nc1ccc(N(CCN(C)C)S(C)(=O)=O)cc1)c1ccccc1 [(bw), 3-Z-[1-(4-(N-(2-dimethylamino-ethyl)-N-methylsulphonyl-amino)-anilino)-1-phenyl-methylene]-6-ethylcarbamoyl-2-indolinone] | 213 to 217 |
| CCNC(=O)c1ccc2c(c1)NC(=O)/C2=C(\Nc1ccc(N(C)C(=O)CN(C)C)cc1)c1ccccc1 [(by), 3-Z-[1-(4-(N-dimethylaminomethylcarbonyl-N-methyl-amino)-anilino)-1-phenyl-methylene]-6-ethylcarbamoyl-2-indolinone] | 130 to 134 |
| CCNC(=O)c1ccc2c(c1)NC(=O)/C2=C(\Nc1ccc(N(CCN(C)C)C(C)=O)cc1)c1ccccc1 [(ca), 3-Z-[1-(4-(N-(2-dimethylamino-ethyl)-N-acetyl-amino)-anilino)-1-phenyl-methylene]-6-ethylcarbamoyl-2-indolinone] | 266 to 270 |
| CCNC(=O)c1ccc2c(c1)NC(=O)/C2=C(\Nc1ccc(N(CCCN(C)C)C(C)=O)cc1)c1ccccc1 [(cb), 3-Z-[1-(4-(N-(3-dimethylamino-propyl)-N-acetyl-amino)-anilino)-1-phenyl-methylene]-6-ethylcarbamoyl-2-indolinone] | 198 to 202 |
| CCN(CC)C(=O)c1ccc2c(c1)NC(=O)/C2=C(\Nc1ccc(N(C)C(=O)CN2CCN(C)CC2)cc1)c1ccccc1 [(ci), 3-Z-[1-(4-(N-((4-methyl-piperazin-1-yl)-methylcarbonyl)-N-methyl-amino)-anilino)-1-phenyl-methylene]-6-diethylcarbamoyl-2-indolinone] | 195 to 198 |
| CCNC(=O)c1ccc2c(c1)NC(=O)/C2=C(\Nc1ccc(C(=O)N2C[C@@H](C)N[C@@H](C)C2)cc1)c1ccccc1 [(cm), 3-Z-[1-(4-((cis-3,5-dimethyl-piperazin-1-yl)-carbonyl)-anilino)-1-phenyl-methylene]-6-ethylcarbamoyl-2-indolinone] | 217 to 220 |
| CCNC(=O)c1ccc2c(c1)NC(=O)/C2=C(\Nc1ccc(N(CCCN(C)C)S(C)(=O)=O)cc1)c1ccccc1 [(cn), 3-Z-[1-(4-(N-(3-dimethylamino-propyl)-N-methylsulphonyl-amino)-anilino)-1-phenyl-methylene]-6-ethylcarbamoyl-2-indolinone] | 171 to 175 |
| COC(=O)c1ccc2c(c1)NC(=O)/C2=C\Nc1ccc(N(C)C(=O)CN(C)C)cc1 [(co), 3-Z-[1-(4-(N-dimethylaminomethylcarbonyl-N-methyl-amino)-anilino)-methylene]-6-methoxycarbonyl-2-indolinone] | 250 to 255 |
| COC(=O)c1ccc2c(c1)NC(=O)/C2=C\Nc1ccc(CN(C)C)cc1 [(cp), 3-Z-[1-(4-dimethylaminomethyl-anilino)-methylene]-6-methoxycarbonyl-2-indolinone] | 234 to 238 |
| COC(=O)c1ccc2c(c1)NC(=O)/C2=C\Nc1ccc(N(C)C(=O)CN2CCN(C)CC2)cc1 [(cq), 3-Z-[1-(4-(N-((4-methyl-piperazin-1-yl)-methylcarbonyl)-N-methyl-amino)-anilino)-methylene]-6-methoxycarbonyl-2-indolinone] | 203 to 207 |
| CCNC(=O)c1ccc2c(c1)NC(=O)/C2=C\Nc1ccc(CN2CCCCC2)cc1 [(ct), 3-Z-[1-(4-(piperidin-1-yl-methyl)-anilino)-methylene]-6-ethylcarbamoyl-2-indolinone] | 245 to 248 |
| CCNC(=O)c1ccc2c(c1)NC(=O)/C2=C\Nc1ccc(N(CCCN(C)C)C(C)=O)cc1 [(cu), 3-Z-[1-(4-(N-(3-dimethylamino-propyl)-N-acetyl-amino)-anilino)-methylene]-6-ethylcarbamoyl-2-indolinone] | 130 |
